Results from US20220000967A1, “SYNTHETIC PEPTIDES INDUCING IMMUNOGENIC CELL DEATH” (SORBONNE UNIVERSITE, priority 2018, published 2022).
Like-named read-outs stand apart in the source and are kept apart here.

Assays:
[1] = Cell death by Annexin-V-APC/PI flow cytometry; assay type: cell-based, human; conditions: CEM, 2h; read-out: cytotoxic concentration that induces around 50% of cell death (CC50)
Description: (§1) CEM, MOLT-4 (T-acute lymphoblastic leukemia, T-ALL), and L5178Y-R (murine lymphoblastic T cell line) were obtained from ATCC. Human and murine PBMCs, human CD4+ and CD8+ T cells, and primary lymphoid organ's cells were obtained from healthy individuals. Cells were maintained in RPMI-1640 medium supplemented with 10% of fetal bovine serum, 2 mM L-glutamine, 100 U/mL penicillin-streptomycin (GIBCO by Life Technologies, Grand Island, N.Y., USA), and incubated at 37° C. in a controlled humidified atmosphere with 5% CO2. Cell count was performed using trypan blue (0.4% Sigma-Aldrich), a Neubauer chamber and an optic microscope (Zeiss Primo Star) as proposed by the ATCC's standard protocols. Flow Cytometry. Cell Death Induction, and Inhibition Annexin-V-allophycocyanin (Ann-V-APC 0.1 μg/ml; BD Pharingen, San Jose Calif., USA), propidium iodide (PI, 0.5 μg/ml Sigma-Aldrich), and tetramethylrhodamine ethyl ester (TMRE, 20 nM, Sigma-Aldrich) were used for phosphatidylserine exposure, cell viability, and mitochondrial transmembrane potential (UΨm) quantification, respectively, in a BD AccuryC6 flow cytometer (BD Biosciences) (total population 10,000 cells). Data were analyzed using FlowJo software. 1×10^6 cells/mL were treated for 2h with PKHB1 (as indicated). For the inhibition assays, calcium chelator, BAPTA (5 mM, CalbioChem, Merck, Billerica Mass., USA); or the pancaspase inhibitor Q-VD-OPh (QVD, 10 μM, BioVision, Milpitas Calif., USA); were added 30 min before PKHB1.

CEM [2] = assay: Cell death by Annexin-V-APC/PI flow cytometry; assay type: cell-based, human; conditions: 2h; for cell death percentage: PKHB1 200 μM
Description: as §1

[3] = Cell death by Annexin-V-APC/PI flow cytometry; assay type: cell-based; conditions: MOLT-4, 2h; read-out: cytotoxic concentration that induces around 50% of cell death (CC50)
Description: as §1

MOLT-4 [4] = assay: Cell death by Annexin-V-APC/PI flow cytometry; assay type: cell-based; conditions: MOLT-4, 2h; for cell death percentage: PKHB1 200 μM
Description: as §1

[5] = Cell death by Annexin-V-APC/PI flow cytometry; assay type: cell-based, murine; conditions: L5178Y-R, 2h; read-out: cytotoxic concentration that induces around 50% of cell death (CC50)
Description: as §1

L5178Y-R [6] = assay: Cell death by Annexin-V-APC/PI flow cytometry; assay type: cell-based, murine; conditions: 2h; for cell death percentage: PKHB1 200 μM
Description: as §1

CEM [7] = assay: Loss of mitochondrial transmembrane potential (TMRE); assay type: cell-based, human; conditions: PKHB1 CC50, 2h
Description: as §1, with “For the inhibition assays, calcium chelator, BAPTA (5 mM, CalbioChem, Merck, Billerica Mass., USA); or the pancaspase inhibitor Q-VD-OPh (QVD, 10 μM, BioVision, Milpitas Calif., USA); were added 30 min before PKHB1.” left out

MOLT-4 [8] = assay: as above; assay type: cell-based, human; conditions: PKHB1 CC50, 2h
Description: as §1, with “For the inhibition assays, calcium chelator, BAPTA (5 mM, CalbioChem, Merck, Billerica Mass., USA); or the pancaspase inhibitor Q-VD-OPh (QVD, 10 μM, BioVision, Milpitas Calif., USA); were added 30 min before PKHB1.” left out

L5178Y-R [9] = assay: as above; assay type: cell-based, murine; conditions: PKHB1 CC50, 2h
Description: as §1, with “For the inhibition assays, calcium chelator, BAPTA (5 mM, CalbioChem, Merck, Billerica Mass., USA); or the pancaspase inhibitor Q-VD-OPh (QVD, 10 μM, BioVision, Milpitas Calif., USA); were added 30 min before PKHB1.” left out

[10] = test system: human PBMCs and CD4+ and CD8+ human T cells from healthy donors; assay: Selectivity on non-cancerous human cells (Annexin-V/PI); assay type: cell-based
Description: Peripheral blood was collected from 10 healthy volunteers after obtaining written informed consent. This study was approved by the Institutional Ethics Committee at the Universidad Autonoma de Nuevo Leon, College of Biological Sciences. The animal study was approved by the Animal Ethical Committee (CEIBA), Number: 01/2015. All experiments were conducted according to Mexican regulation NOM-062-ZOO-1999. The blood from sacrificed mice was obtained by cardiac puncture, while human blood was collected by venipuncture. Peripheral blood mononuclear cells (PBMCs) isolation was performed by density gradient centrifugation using Ficoll-Hypaque-1119 (Sigma-Aldrich, St Louis, Mo., USA). 4×10^5 white blood cells were washed and seeded. […]
CEM, MOLT-4 (T-acute lymphoblastic leukemia, T-ALL), and L5178Y-R (murine lymphoblastic T cell line) were obtained from ATCC. […] Cell Death Induction, and Inhibition Annexin-V-allophycocyanin (Ann-V-APC 0.1 μg/ml; BD Pharingen, San Jose Calif., USA), propidium iodide (PI, 0.5 μg/ml Sigma-Aldrich), and tetramethylrhodamine ethyl ester (TMRE, 20 nM, Sigma-Aldrich) were used for phosphatidylserine exposure, cell viability, and mitochondrial transmembrane potential (UΨm) quantification, respectively, in a BD AccuryC6 flow cytometer (BD Biosciences) (total population 10,000 cells). Data were analyzed using FlowJo software. […]

[11] = test system: murine PBMCs and primary cultures of bone marrow, spleen, thymus and lymph nodes; assay: Selectivity on non-cancerous murine cells (Ann/PI, MTT); assay type: cell-based; conditions: lymph nodes of healthy BALB/c mice
Description: Peripheral blood was collected from 10 healthy volunteers after obtaining written informed consent. This study was approved by the Institutional Ethics Committee at the Universidad Autonoma de Nuevo Leon, College of Biological Sciences. The animal study was approved by the Animal Ethical Committee (CEIBA), Number: 01/2015. All experiments were conducted according to Mexican regulation NOM-062-ZOO-1999. The blood from sacrificed mice was obtained by cardiac puncture, while human blood was collected by venipuncture. Peripheral blood mononuclear cells (PBMCs) isolation was performed by density gradient centrifugation using Ficoll-Hypaque-1119 (Sigma-Aldrich, St Louis, Mo., USA). 4×10^5 white blood cells were washed and seeded. CD4+/CD8+ characterization was done using primary antibodies (CD4; MT310 sc-19641 and CD8; 32-M4 sc-1177, Santa Cruz, Calif., USA).
Spleen, thymus, lymphatic node, and bone marrow cells were obtained from female BALB/c mice post-sacrifice. Spleen cells were obtained through perfusion, thymocytes and lymphatic node cells were obtained by maceration, and bone morrow cells (from one femur and tibia per mouse) were flushed with PBS. Cells washed and counted using trypan blue staining.
CEM, MOLT-4 (T-acute lymphoblastic leukemia, T-ALL), and L5178Y-R (murine lymphoblastic T cell line) were obtained from ATCC. […] Data were analyzed using FlowJo software. […]

L5178Y-R tumor = assay: PKHB1 treatment of L5178Y-R tumor-bearing mice; assay type: in vivo, BALB/c mice; conditions: 200 μg PKHB1 intraperitoneally weekly; day 18
Description: The heparinized blood acquired from mice, was assessed using the Automatic Hematology Analyzer KontroLab. Blood smears were performed and fixed with methanol, stained with Wright's, and observed under the microscope to perform differential blood white cells counts.
Six-to-eight-week-old BALB/c female mice were maintained in controlled environmental conditions (25° C. and 12h light/dark cycle) and were supplied with rodent food (Science diet) and water ad libitum. • Prophylactic vaccinations: L5178Y-R cells (1.5, 3, 5×10^6) were treated with 300 μM of PKHB1 (CC100) for 2h. Cell death was confirmed using trypan blue staining and flow cytometry. Treated cells were inoculated subcutaneously in 100 μl PBS into the left hind of the leg, whereas 2×10^6 untreated control cells were inoculated into the right hind 7 days later (42). • Tumor establishment and measurement: Tumor was established by the subcutaneous injection of 1×10^6 L5178Y-R cells in 100 μL PBS, into the left hind of the leg. Tumor volume and weight were measured three times per week using a caliper (Digimatic Caliper Mitutoyo Corporation, Japan) and a digital scale (American Weigh Scale-600-BLK, USA). When the tumor reached 100 mm^3 the first PKHB1 injection (200 μg) was applied (day 0). Tumor volume was determined with the formula: tumor volume (mm3)=[…]*A*B*C. Long-term memory assay: Mice in complete remission after PKHB1 treatment, were rechallenged with 2×10^6 cells in 100 μL of PBS, into the opposite limb, and tumor volume was measured like described above.
Tissues and organs were obtained and fixed in 10% neutral formalin, embedded in paraffin, sectioned (5 µm thickness) and stained with H&E (Sigma-Aldrich, St Louis, Mo., USA). Histopathological analysis was done by an external veterinarian pathologist (National professional certificate 2593012). Immunohistochemistry was done using the appropriate primary antibody (CD4/CD8) and adding the biotinylated secondary antibody. Finally, hematoxylin-counterstained slides are coverslipped using resin as mounting solution and observed under microscopy.

[12] = pre-incubated 30 min with Ca2+ chelator BAPTA
[13] = pre-incubated 30 min with pan-caspase inhibitor Q-VD-OPH

CSCC[C@H](NC(=O)[C@@H](NC(=O)[C@@H](NC(=O)[C@H](Cc1ccc(O)cc1)NC(=O)[C@H](Cc1ccccc1)NC(=O)[C@H](CCCNC(=N)N)NC(=O)[C@H](N)CCCCN)C(C)C)C(C)C)C(=O)N[C@@H](Cc1c[nH]c2ccccc12)C(=O)N[C@@H](CCCCN)C(=O)N[C@H](CCCCN)C(=O)O [PKHB1, (D)K-R-F-Y-V-V-M-W-K-(D)K]
CC50 [1]: 200 µM
cell death (Ann-V-APC/PI positive cells) (CEM [2]; 100, 200 and 300 μM): concentration-dependent
cell death percentage (CEM [2]; left alone): 51%±4
cell death percentage (CEM [2]; [12]): 18%±11
cell death percentage (CEM [2]; [13]): 48%±5
CC50 [3]: 300 µM
cell death (Ann-V-APC/PI positive cells) (MOLT-4 [4]; 100, 200 and 300 μM): concentration-dependent
cell death percentage (MOLT-4 [4]; left alone): 57%±4
cell death percentage (MOLT-4 [4]; [12]): 38%±3
cell death percentage (MOLT-4 [4]; [13]): 51%±6
CC50 [5]: 200 µM
cell death (Ann-V-APC/PI positive cells) (L5178Y-R [6]; 100, 200 and 300 μM): concentration-dependent
CC100 (L5178Y-R [6]): 300 µM
cell death percentage (L5178Y-R [6]; left alone): 52%±5
cell death percentage (L5178Y-R [6]; [12]): 21%±8
cell death percentage (L5178Y-R [6]; [13]): 49%±3
loss of mitochondrial membrane potential (CEM [7]): 49%±5
loss of mitochondrial membrane potential (MOLT-4 [8]): 61%±4
loss of mitochondrial membrane potential (L5178Y-R [9]): 51%±8
cell viability of non-cancerous cells [10]: did not significantly affected cell viability
cell viability of non-cancerous cells [11]: did not significantly affected cell viability
tumor histology (H&E), leukocyte infiltration (L5178Y-R tumor): contained a mixture of lymphocytes and polymorphonuclear cells
